Measured values: patent publication US8466089B2, “Pyrazole compounds, process for their production and herbicides containing them” (Ishihara Sangyo Kaisha, Ltd., priority 2008, dated 2013)
Read-outs that look alike come from different tables or passages of the source.

Key:
Assay type in all cases: in vivo
[1] = test system: giant foxtail (Setaria faberi Herrm.); test: Test Example 5, foliar treatment versus Reference Compounds; settings: 4.0 to 4.5 leaf stage, 20th day after application, read-out: Growth inhibition rate (%) (20th day after application) Giant foxtail
Excerpt: (§1) Upland field soil was put into a 1/1,000,000 hectare pot, and seeds of various plants were sown. When the respective plants reached predetermined leaf stage ((1) velvetleaf (Abutilon theophrasti MEDIC.): 3.0 to 3.5 leaf stage, (2) giant foxtail (Setaria faberi Herrm.): 4.0 to 4.5 leaf stage, (3) green foxtail (Setaria viridis L.): 5.0 to 5.5 leaf stage, and (4) corn (Zea mays L.): 4.0 to 4.3 leaf stage, a wettable powder of compound No. 2-1 of the above-mentioned present invention, a wettable powder of the above-mentioned Reference Compound 1 and a wettable powder of the above-mentioned Reference Compound 2, prepared in accordance with a conventional preparation method, were weighed so that the active ingredients became the prescribed amounts, and diluted with water in an amount corresponding to 300 liter per 1 hectare (containing 0.5 vol % of an agricultural spreader (Destiny HC: WINFIELD SOLUTIONS by LLC). The spray solutions thus prepared were applied for foliar treatment by a small sprayer.
(§2) On the 7th to 20th day after application, the state of growth of the respective plants was visually observed, and the herbicidal effect was evaluated by a growth inhibition rate (%) of 0 (equivalent to the non-treated area) to 100% (complete kill).

[2] = test system: green foxtail (Setaria viridis L.); test: as above; settings: 5.0 to 5.5 leaf stage, 18th day after application, read-out: Growth inhibition rate (%) (18th day after application) Green foxtail
Excerpt: as §1, §2

[3] = test system: velvetleaf (Abutilon theophrasti MEDIC.); test: as above; settings: 3.0 to 3.5 leaf stage, 20th day after application, read-out: Growth inhibition rate (%) (20th day after application) Velvet leaf
Excerpt: as §1, §2

[4] = test system: sorgo (Sorghum bicolor Moench) (var.: Lucky Sorgo); test: Test Example 6, soil column downward movement, sorgo bioassay; settings: 14th day after sowing
Description: Soil (sterilized soil:sand=3:1) was packed (4 L) into a column (9.5 cm in diameter×40 cm in height, application area: 0.007 m^2), and tap water was dropped from above by a Peristaltic pump before application of the herbicide for the purpose of maintaining the soil moisture to be uniform. Then, 10 mL of a spray solution prepared so that each agent (Compound No. 2-1, the above Reference Compounds 1 and 2) would be at a concentration corresponding to 250 g/ha was dropwise applied by a pipette. After application, water was dropped again at a rate of 400 mL/hr for about 3 hours by means of a Peristaltic pump. After the dropping, the column was left to stand for 1 day, and then the column was vertically evenly divided and seeds of sorgo (Sorghum bicolor Moench) (var.: Lucky Sorgo) were sown in a row. On the 14th day after sowing, the state of growth of the plant was visually observed at 3 cm intervals from the application point of the agent, whereby the germination and the degree of growth were evaluated by a growth inhibition rate (%) of 0 (equivalent to the non-treated area) to 100% (complete kill) to obtain the results in Table 17.
From the above results, the growth inhibition rates of Reference Compounds No. 1 and No. 2 are observed in depths deeper than that of Compound No. 2-1. […] Whereas, Compound No. 2-1 stayed at a shallow portion of soil (in a layer of from 0 to 9 cm).

[5] = test system: barnyardgrass (Echinochloa crus-galli L.); test: Test Example 1, foliar treatment in upland pots; settings: 20th to 22nd day after application, visual, read-out: Growth inhibition rate (%) Barnyardgrass
Excerpt: (§3) Upland field soil was put into a 1/170,000 hectare pot, and seeds of various plants were sown. When the respective plants reached predetermined leaf stage ((1) barnyardgrass (Echinochloa crus-galli L.): 1.2 to 3.0 leaf stage, (2) crabgrass (Digitaria sanguinalis L.): 1.0 to 3.0 leaf stage, (3) green foxtail (Setaria viridis L.): 1.5 to 3.0 leaf stage, (4) redroot pigweed (Amaranthus retroflexus L.): cotyledon stage to 1.5 leaf stage, (5) prickly sida (Sida spinosa L.): cotyledon stage to 2.0 leaf stage, (6) velvetleaf (Abutilon theophrasti MEDIC.): cotyledon stage to 1.3 leaf stage, (7) rice (Oryza sativa L.): 1.2 to 2.5 leaf stage, (8) corn (Zea mays L.): 2.0 to 3.3 leaf stage, (9) soybean (Glycine max Merr.): primary leaf stage to 0.3 leaf stage) and wheat (Triticum spp.): 2.0 to 3.0 leaf stage, wettable powders or emulsifiable concentrates of the compounds of the present invention prepared in accordance with a conventional preparation method, were weighed so that the active ingredients became the prescribed amounts, and diluted with water in an amount corresponding to 500 liter per 1 hectare (containing 0.1 vol % of an agricultural spreader (“KUSARINOH”, manufactured by NIHON NOHYAKU CO., LTD.)). The spray solutions thus prepared were applied for foliar treatment by a small sprayer.
(§4) On the 20th to 22nd day after application, the state of growth of the respective plants was visually observed, and the herbicidal effect was evaluated by a growth inhibition rate (%) of 0 (equivalent to the non-treated area) to 100% (complete kill).

corn (Zea mays L.) [6] = test: Test Example 1, foliar treatment in upland pots; settings: 20th to 22nd day after application, visual, read-out: Growth inhibition rate (%) Corn
Excerpt: as §3, §4

[7] = test system: crabgrass (Digitaria sanguinalis L.); test: Test Example 1, foliar treatment in upland pots; settings: 20th to 22nd day after application, visual, read-out: Growth inhibition rate (%) Crabgrass
Excerpt: as §3, §4

[8] = test system: green foxtail (Setaria viridis L.); test: Test Example 1, foliar treatment in upland pots; settings: 20th to 22nd day after application, visual, read-out: Growth inhibition rate (%) Green foxtail
Excerpt: as §3, §4

[9] = test system: prickly sida (Sida spinosa L.); test: Test Example 1, foliar treatment in upland pots; settings: 20th to 22nd day after application, visual, read-out: Growth inhibition rate (%) Prickly sida
Excerpt: as §3, §4

[10] = test system: redroot pigweed (Amaranthus retroflexus L.); test: Test Example 1, foliar treatment in upland pots; settings: 20th to 22nd day after application, visual, read-out: Growth inhibition rate (%) Redroot pigweed
Excerpt: as §3, §4

rice (Oryza sativa L.) [11] = test: Test Example 1, foliar treatment in upland pots; settings: 20th to 22nd day after application, visual, read-out: Growth inhibition rate (%) Rice
Excerpt: as §3, §4

[12] = test system: soybean (Glycine max Merr.); test: Test Example 1, foliar treatment in upland pots; settings: 20th to 22nd day after application, visual, read-out: Growth inhibition rate (%) Soybean
Excerpt: as §3, §4

[13] = test system: velvetleaf (Abutilon theophrasti MEDIC.); test: Test Example 1, foliar treatment in upland pots; settings: 20th to 22nd day after application, visual, read-out: Growth inhibition rate (%) Velvetleaf
Excerpt: as §3, §4

wheat (Triticum spp.) [14] = test: Test Example 1, foliar treatment in upland pots; settings: 20th to 22nd day after application, visual, read-out: Growth inhibition rate (%) Wheat
Excerpt: as §3, §4

[15] = test system: barnyardgrass (Echinochloa crus-galli L.); test: Test Example 2, soil application on the day after sowing; settings: 21st to 22nd day after application, visual, read-out: Growth inhibition rate (%) Barnyardgrass
Excerpt: (§5) Upland field soil was put into a 1/170,000 hectare pot, and seeds of various plants (barnyardgrass (Echinochloa crus-galli L.), crabgrass (Digitaria sanquinalis L.), green foxtail (Setaria viridis L.), redroot pigweed (Amaranthus retroflexus L.), prickly sida (Sida spinosa L.), velvetleaf (Abutilon theophrasti MEDIC.), rice (Oryza sativa L.), corn (Zea mays L.), soybean (Glycine max Merr.)) and wheat (Triticum spp.) were sown. On the day after sowing, wettable powders or emulsifiable concentrates of the compounds of the present invention prepared in accordance with a conventional preparation method, were weighed so that the active ingredients became the prescribed amounts, and diluted with water in an amount corresponding to 500 liter per 1 hectare, followed by soil application with a small sprayer.
(§6) On the 21st to 22nd day after the application, the state of growth of the respective plants was visually observed, and the herbicidal effect was evaluated by a growth inhibition rate (%) of from 0 (equivalent to the non-treated area) to 100% (complete kill).

corn (Zea mays L.) [16] = test: as above; settings: 21st to 22nd day after application, visual, read-out: Growth inhibition rate (%) Corn
Excerpt: as §5, §6

[17] = test system: crabgrass (Digitaria sanquinalis L.); test: as above; settings: 21st to 22nd day after application, visual, read-out: Growth inhibition rate (%) Crabgrass
Excerpt: as §5, §6

[18] = test system: green foxtail (Setaria viridis L.); test: as above; settings: 21st to 22nd day after application, visual, read-out: Growth inhibition rate (%) Green foxtail
Excerpt: as §5, §6

[19] = test system: prickly sida (Sida spinosa L.); test: as above; settings: 21st to 22nd day after application, visual, read-out: Growth inhibition rate (%) Prickly sida
Excerpt: as §5, §6

[20] = test system: redroot pigweed (Amaranthus retroflexus L.); test: as above; settings: 21st to 22nd day after application, visual, read-out: Growth inhibition rate (%) Redroot pigweed
Excerpt: as §5, §6

rice (Oryza sativa L.) [21] = test: as above; settings: 21st to 22nd day after application, visual, read-out: Growth inhibition rate (%) Rice
Excerpt: as §5, §6

[22] = test system: velvetleaf (Abutilon theophrasti MEDIC.); test: as above; settings: 21st to 22nd day after application, visual, read-out: Growth inhibition rate (%) Velvetleaf
Excerpt: as §5, §6

wheat (Triticum spp.) [23] = test: as above; settings: 21st to 22nd day after application, visual, read-out: Growth inhibition rate (%) Wheat
Excerpt: as §5, §6

[24] = test system: Japanese bulrush (Scirpus juncoides); test: Test Example 3, paddy field pot, application to irrigated water; settings: Schoenoplectiella juncoides, applied at 0.5 leaf stage, 13th to 17th day after application, read-out: Growth inhibition rate (%) Japanese bulrush
Excerpt: (§7) Paddy field soil was put into a 1/1,000,000 hectare pot, and seeds of barnyardgrass (Echinochloa oryzicola vasing.) and Japanese bulrush (Scirpus juncoides) were sown and lightly covered with soil. Then, pot was left to stand in a greenhouse in a state irrigated to a water depth of from 0.5 to 1 cm, and next day or two days later, tubers of Japanese ribbon waparo (Sagittaria pygmaea) were planted. Then, the irrigated water depth was maintained to be from 3 to 4 cm, and when barnyardgrass and Japanese bulrush reached 0.5 leaf stage, and Japanese ribbon waparo reached primary leaf stage, a water diluted solution of a wettable powder or an emulsifiable concentrate of the compound of the present invention prepared in accordance with a conventional preparation method, was uniformly dropwise applied by a pipette so that the amount of active ingredients would be a prescribed amount. Further, paddy field soil was put into a 1/1,000,000 pot, followed by soil puddling to an irrigated water depth of from 3 to 4 cm. Next day, rice (Oryza sativa L.) (var.: Nihonbare) of two leaf stage was transplanted in a transplantation depth of 3 cm. On the 4th day after transplantation, the compound of the present invention was applied in the same manner as described above.
(§8) On the 13th to 17th day after application, the state of growth of barnyardgrass, Japanese bulrush and Japanese ribbon waparo was visually observed, and on the 20th to 23rd day after application, the state of growth of rice was visually observed, and the herbicidal effect was evaluated by a growth inhibition rate (%) of 0 (equivalent to the non-treated area) to 100% (complete kill).

[25] = test system: barnyardgrass (Echinochloa oryzicola vasing.); test: as above; settings: applied at 0.5 leaf stage, 13th to 17th day after application, read-out: Growth inhibition rate (%) barnyard grass
Excerpt: as §7, §8

[26] = test system: rice (Oryza sativa L.) (var.: Nihonbare); test: Test Example 3, paddy field pot, transplanted rice; settings: applied 4th day after transplantation, 20th to 23rd day after application, read-out: Growth inhibition rate (%) Rice
Excerpt: as §7, §8

`CCn1ncc(C(=O)c2ccc(S(C)(=O)=O)c(OCCOC)c2Cl)c1O` [Reference Compound 1] was tested, and the inhibition at 3.5 g/ha [1] was 30%, the inhibition at 7 g/ha [2] was 40% and the inhibition at 3.5 g/ha [3] was 45%. It also gave an inhibition at 250 g/ha ([4]; depth 0-3 cm, read-out: Growth inhibition rate (%) against sorgo, Depth (cm) from the applied surface 0-3) of 58%, an inhibition at 250 g/ha ([4]; depth 3-6 cm, read-out: Growth inhibition rate (%) against sorgo, Depth (cm) from the applied surface 3-6) of 58% and an inhibition at 250 g/ha ([4]; depth 6-9 cm, read-out: Growth inhibition rate (%) against sorgo, Depth (cm) from the applied surface 6-9) of 58%. The inhibition at 250 g/ha ([4]; depth 9-12 cm, read-out: Growth inhibition rate (%) against sorgo, Depth (cm) from the applied surface 9-12) was 60%, the inhibition at 250 g/ha ([4]; depth 12-15 cm, read-out: Growth inhibition rate (%) against sorgo, Depth (cm) from the applied surface 12-15) was 53% and the inhibition at 250 g/ha ([4]; depth 15-18 cm, read-out: Growth inhibition rate (%) against sorgo, Depth (cm) from the applied surface 15-18) was 35%. For the same molecule, the inhibition at 250 g/ha ([4]; depth 18-21 cm, read-out: Growth inhibition rate (%) against sorgo, Depth (cm) from the applied surface 18-21) was 28%, the inhibition at 250 g/ha ([4]; depth 21-24 cm, read-out: Growth inhibition rate (%) against sorgo, Depth (cm) from the applied surface 21-24) was 30% and the inhibition at 250 g/ha ([4]; depth 24-27 cm, read-out: Growth inhibition rate (%) against sorgo, Depth (cm) from the applied surface 24-27) was 28%. It also gave an inhibition at 250 g/ha ([4]; depth 27-30 cm, read-out: Growth inhibition rate (%) against sorgo, Depth (cm) from the applied surface 27-30) of 15%.
Molecule `COCCOc1c(S(C)(=O)=O)ccc(C(=O)c2c(C)nn(C(C)C)c2O)c1C` [Compound No. 8-2, (5-Hydroxy-1-isopropyl-3-methyl-1H-pyrazol-4-yl)(3-(2-methoxyethoxy)-2-methyl-4-(methylsulfonyl)phenyl)ketone] has an inhibition at 7 g/ha [5] of 20%, an inhibition at 7 g/ha (corn (Zea mays L.) [6]) of 0% and an inhibition at 7 g/ha [7] of 40%. For the same molecule, the inhibition at 7 g/ha [8] was 50%, the inhibition at 7 g/ha [9] was 20% and the inhibition at 7 g/ha [10] was 60%. For the same molecule, the inhibition at 7 g/ha (rice (Oryza sativa L.) [11]) was 0%, the inhibition at 7 g/ha [12] was 10% and the inhibition at 7 g/ha [13] was 60%. The inhibition at 7 g/ha (wheat (Triticum spp.) [14]) was 0%, the inhibition at 250 g/ha [15] was 100% and the inhibition at 250 g/ha (corn (Zea mays L.) [16]) was 60%. It also gave an inhibition at 250 g/ha [17] of 100%, an inhibition at 250 g/ha [18] of 100% and an inhibition at 250 g/ha [19] of 60%. For the same molecule, the inhibition at 250 g/ha [20] was 100%, the inhibition at 250 g/ha (rice (Oryza sativa L.) [21]) was 100% and the inhibition at 250 g/ha [22] was 70%. The inhibition at 250 g/ha (wheat (Triticum spp.) [23]) was 20%, the inhibition at 63 g/ha [24] was 70% and the inhibition at 63 g/ha [25] was 40%. It also gave an inhibition at 63 g/ha [26] of 10%.
